Test system: 991263-137-R1-J2-PDC complex spheroid viability
Assay: Anticancer human tumor 991263-137-R1-J2-PDC patient-derived colon adenocarcinoma cell line growth inhibition [POLQ]
Conditions: for IC50: curve of first compound; for viability, T/C: stronger effect = lower value
In short: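 Three-cell-type spheroids modelling solid tumor plus stroma served as the readout system; POL inhibitors were tested individually and in combination, concentration ranges set by clinical Cmax where known.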

[1] = second compound 0.0316 µM, first compound 0.0316 µM
[2] = second compound 0.0316 µM, first compound 0.1 µM
[3] = second compound 0.0316 µM, first compound 0.316 µM
[4] = second compound 0.0316 µM, first compound 1 µM
[5] = second compound 0.0316 µM, first compound 3.16 µM
[6] = second compound 0.0316 µM, first compound 10 µM
[7] = second compound 0.1 µM, first compound 0.0316 µM
[8] = second compound 0.1 µM, first compound 0.1 µM
[9] = second compound 0.1 µM, first compound 0.316 µM
[10] = second compound 0.1 µM, first compound 1 µM
[11] = second compound 0.1 µM, first compound 3.16 µM
[12] = second compound 0.1 µM, first compound 10 µM
[13] = second compound 0.316 µM, first compound 0.0316 µM
[14] = second compound 0.316 µM, first compound 0.1 µM
[15] = second compound 0.316 µM, first compound 0.316 µM
[16] = second compound 0.316 µM, first compound 1 µM
[17] = second compound 0.316 µM, first compound 3.16 µM
[18] = second compound 0.316 µM, first compound 10 µM
[19] = second compound 1 µM, first compound 0.0316 µM
[20] = second compound 1 µM, first compound 0.1 µM
[21] = second compound 1 µM, first compound 0.316 µM
[22] = second compound 1 µM, first compound 1 µM
[23] = second compound 1 µM, first compound 3.16 µM
[24] = second compound 1 µM, first compound 10 µM
[25] = second compound 3.16 µM, first compound 0.0316 µM
[26] = second compound 3.16 µM, first compound 0.1 µM
[27] = second compound 3.16 µM, first compound 0.316 µM
[28] = second compound 3.16 µM, first compound 1 µM
[29] = second compound 3.16 µM, first compound 3.16 µM
[30] = second compound 3.16 µM, first compound 10 µM
[31] = second compound 10 µM, first compound 0.0316 µM
[32] = second compound 10 µM, first compound 0.1 µM
[33] = second compound 10 µM, first compound 0.316 µM
[34] = second compound 10 µM, first compound 1 µM
[35] = second compound 10 µM, first compound 3.16 µM
[36] = second compound 10 µM, first compound 10 µM
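Further: spheroids exposed to compounds for 7 days before readout.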
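Wherever viability, T/C is given: 100% = DMSO vehicle control viability.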

## C#Cc1c(F)ccc2cc(O)cc(-c3ncc4c(N5CC6CCC(C5)N6)nc(OCC56CCCN5CC(F)C6)nc4c3F)c12 (stereo not given) + Cc1cccc(N(C)C(=O)C2C(O)CCN2c2nc(C)cc(C(F)(F)F)c2C#N)c1
Second compound 0.0316 µM
  IC50: > 10 µM
Second compound 0.1 µM
  IC50: > 10 µM
Second compound 0.316 µM
  IC50: > 10 µM
Second compound 1 µM
  IC50: > 10 µM
Second compound 3.16 µM
  IC50: > 10 µM
Second compound 10 µM
  IC50: > 10 µM
[1]
  viability, T/C: 110%
[2]
  viability, T/C: 95.5%
[3]
  viability, T/C: 104%
[4]
  viability, T/C: 104%
[5]
  viability, T/C: 92.9%
[6]
  viability, T/C: 100%
[7]
  viability, T/C: 97.8%
[8]
  viability, T/C: 104%
[9]
  viability, T/C: 109%
[10]
  viability, T/C: 76.1%
[11]
  viability, T/C: 106%
[12]
  viability, T/C: 92.2%
[13]
  viability, T/C: 101%
[14]
  viability, T/C: 106%
[15]
  viability, T/C: 89.8%
[16]
  viability, T/C: 93.5%
[17]
  viability, T/C: 97.7%
[18]
  viability, T/C: 95.8%
[19]
  viability, T/C: 93.8%
[20]
  viability, T/C: 95%
[21]
  viability, T/C: 103%
[22]
  viability, T/C: 95.6%
[23]
  viability, T/C: 99.9%
[24]
  viability, T/C: 98.2%
[25]
  viability, T/C: 95%
[26]
  viability, T/C: 117%
[27]
  viability, T/C: 121%
[28]
  viability, T/C: 93.2%
[29]
  viability, T/C: 98.7%
[30]
  viability, T/C: 105%
[31]
  viability, T/C: 94.8%
[32]
  viability, T/C: 102%
[33]
  viability, T/C: 106%
[34]
  viability, T/C: 90.1%
[35]
  viability, T/C: 106%
[36]
  viability, T/C: 79.7%

## C=CC(=O)N1CCN(c2nc(=O)n(-c3c(C)ccnc3C(C)C)c3nc(-c4c(O)cccc4F)c(F)cc23)C(C)C1 (stereo not given) + Cc1cccc(N(C)C(=O)C2C(O)CCN2c2nc(C)cc(C(F)(F)F)c2C#N)c1
Second compound 0.0316 µM
  IC50: > 10 µM
Second compound 0.1 µM
  IC50: > 10 µM
Second compound 0.316 µM
  IC50: > 10 µM
Second compound 1 µM
  IC50: > 10 µM
Second compound 3.16 µM
  IC50: > 10 µM
Second compound 10 µM
  IC50: > 10 µM
[1]
  viability, T/C: 104%
[2]
  viability, T/C: 109%
[3]
  viability, T/C: 93.5%
[4]
  viability, T/C: 103%
[5]
  viability, T/C: 114%
[6]
  viability, T/C: 115%
[7]
  viability, T/C: 114%
[8]
  viability, T/C: 112%
[9]
  viability, T/C: 102%
[10]
  viability, T/C: 90.5%
[11]
  viability, T/C: 116%
[12]
  viability, T/C: 107%
[13]
  viability, T/C: 97.6%
[14]
  viability, T/C: 107%
[15]
  viability, T/C: 102%
[16]
  viability, T/C: 90.3%
[17]
  viability, T/C: 120%
[18]
  viability, T/C: 104%
[19]
  viability, T/C: 88%
[20]
  viability, T/C: 117%
[21]
  viability, T/C: 107%
[22]
  viability, T/C: 81.7%
[23]
  viability, T/C: 115%
[24]
  viability, T/C: 124%
[25]
  viability, T/C: 98.7%
[26]
  viability, T/C: 118%
[27]
  viability, T/C: 95.7%
[28]
  viability, T/C: 91.7%
[29]
  viability, T/C: 123%
[30]
  viability, T/C: 107%
[31]
  viability, T/C: 101%
[32]
  viability, T/C: 107%
[33]
  viability, T/C: 108%
[34]
  viability, T/C: 116%
[35]
  viability, T/C: 116%
[36]
  viability, T/C: 103%

## CCc1cc2c(N3CCc4c(cc(Cn5ccnc5)cc4-c4cn(C)nc4C(F)(F)F)C3=O)cc(C)nc2c(OC)n1 + Cc1cccc(N(C)C(=O)C2C(O)CCN2c2nc(C)cc(C(F)(F)F)c2C#N)c1
Second compound 0.0316 µM
  IC50: > 10 µM
Second compound 0.1 µM
  IC50: > 10 µM
Second compound 0.316 µM
  IC50: > 10 µM
Second compound 1 µM
  IC50: > 10 µM
Second compound 3.16 µM
  IC50: > 10 µM
Second compound 10 µM
  IC50: > 10 µM
[1]
  viability, T/C: 99.4%
[2]
  viability, T/C: 111%
[3]
  viability, T/C: 95.7%
[4]
  viability, T/C: 97.9%
[5]
  viability, T/C: 96.7%
[6]
  viability, T/C: 89.5%
[7]
  viability, T/C: 109%
[8]
  viability, T/C: 107%
[9]
  viability, T/C: 96.2%
[10]
  viability, T/C: 87.9%
[11]
  viability, T/C: 98%
[12]
  viability, T/C: 99.8%
[13]
  viability, T/C: 113%
[14]
  viability, T/C: 93.8%
[15]
  viability, T/C: 101%
[16]
  viability, T/C: 91.4%
[17]
  viability, T/C: 107%
[18]
  viability, T/C: 88.9%
[19]
  viability, T/C: 100%
[20]
  viability, T/C: 101%
[21]
  viability, T/C: 84.5%
[22]
  viability, T/C: 98.3%
[23]
  viability, T/C: 104%
[24]
  viability, T/C: 82%
[25]
  viability, T/C: 101%
[26]
  viability, T/C: 96%
[27]
  viability, T/C: 106%
[28]
  viability, T/C: 111%
[29]
  viability, T/C: 95.3%
[30]
  viability, T/C: 96.7%
[31]
  viability, T/C: 95.7%
[32]
  viability, T/C: 105%
[33]
  viability, T/C: 90.9%
[34]
  viability, T/C: 90.7%
[35]
  viability, T/C: 84.5%
[36]
  viability, T/C: 92.1%

## CCc1cc2c(N3CCc4c(cc(Cn5ccnc5)cc4-c4cn(C)nc4C(F)(F)F)C3=O)ccnc2c(OC)n1 + Cc1cccc(N(C)C(=O)C2C(O)CCN2c2nc(C)cc(C(F)(F)F)c2C#N)c1
Second compound 0.0316 µM
  IC50: > 10 µM
Second compound 0.1 µM
  IC50: > 10 µM
Second compound 0.316 µM
  IC50: > 10 µM
Second compound 1 µM
  IC50: > 10 µM
Second compound 3.16 µM
  IC50: > 10 µM
Second compound 10 µM
  IC50: > 10 µM
[1]
  viability, T/C: 95.3%
[2]
  viability, T/C: 108%
[3]
  viability, T/C: 107%
[4]
  viability, T/C: 87.2%
[5]
  viability, T/C: 82.8%
[6]
  viability, T/C: 91.7%
[7]
  viability, T/C: 103%
[8]
  viability, T/C: 100%
[9]
  viability, T/C: 97.7%
[10]
  viability, T/C: 95.9%
[11]
  viability, T/C: 96.7%
[12]
  viability, T/C: 88.3%
[13]
  viability, T/C: 104%
[14]
  viability, T/C: 96.8%
[15]
  viability, T/C: 93.4%
[16]
  viability, T/C: 95.7%
[17]
  viability, T/C: 100%
[18]
  viability, T/C: 94.4%
[19]
  viability, T/C: 105%
[20]
  viability, T/C: 98.4%
[21]
  viability, T/C: 110%
[22]
  viability, T/C: 96%
[23]
  viability, T/C: 103%
[24]
  viability, T/C: 92%
[25]
  viability, T/C: 106%
[26]
  viability, T/C: 97.5%
[27]
  viability, T/C: 90.4%
[28]
  viability, T/C: 96.2%
[29]
  viability, T/C: 90.3%
[30]
  viability, T/C: 89%
[31]
  viability, T/C: 96.6%
[32]
  viability, T/C: 111%
[33]
  viability, T/C: 97%
[34]
  viability, T/C: 89.9%
[35]
  viability, T/C: 91.4%
[36]
  viability, T/C: 83%

## COc1cc2cc(C(=O)CCC(=O)O)sc2cc1OC + Cc1cccc(N(C)C(=O)C2C(O)CCN2c2nc(C)cc(C(F)(F)F)c2C#N)c1
Second compound 0.0316 µM
  IC50: > 10 µM
Second compound 0.1 µM
  IC50: > 10 µM
Second compound 0.316 µM
  IC50: > 10 µM
Second compound 1 µM
  IC50: > 10 µM
Second compound 3.16 µM
  IC50: > 10 µM
Second compound 10 µM
  IC50: > 10 µM
[1]
  viability, T/C: 100%
[2]
  viability, T/C: 103%
[3]
  viability, T/C: 99.8%
[4]
  viability, T/C: 95.8%
[5]
  viability, T/C: 102%
[6]
  viability, T/C: 81.8%
[7]
  viability, T/C: 91.5%
[8]
  viability, T/C: 88.8%
[9]
  viability, T/C: 95.4%
[10]
  viability, T/C: 93.6%
[11]
  viability, T/C: 95.7%
[12]
  viability, T/C: 77%
[13]
  viability, T/C: 102%
[14]
  viability, T/C: 92.8%
[15]
  viability, T/C: 101%
[16]
  viability, T/C: 102%
[17]
  viability, T/C: 97.4%
[18]
  viability, T/C: 71.2%
[19]
  viability, T/C: 91.2%
[20]
  viability, T/C: 103%
[21]
  viability, T/C: 91.5%
[22]
  viability, T/C: 88%
[23]
  viability, T/C: 108%
[24]
  viability, T/C: 74.2%
[25]
  viability, T/C: 87.8%
[26]
  viability, T/C: 94.1%
[27]
  viability, T/C: 90.3%
[28]
  viability, T/C: 110%
[29]
  viability, T/C: 87.2%
[30]
  viability, T/C: 80%
[31]
  viability, T/C: 86%
[32]
  viability, T/C: 97.5%
[33]
  viability, T/C: 97.9%
[34]
  viability, T/C: 101%
[35]
  viability, T/C: 102%
[36]
  viability, T/C: 81%

From PubChem BioAssay AID1963828 (Molecular Pharmacology Branch, DTP, NCI, 2024)
